Results published in patent US10835533B2, “1 -((3S,4R)-4-(3-fluorophenyl)-1-(2-methoxyethyl)pyrrolidin-3-yl)-3-(4-methyl-3-(2-methylpyrimidin-5-yl)-1-phenyl-1H-pyrazol-5-yl)urea as a TrkA kinase inhibitor” (Array BioPharma Inc., priority 2014, dated 2020).

How the values were obtained:
Test in all cases: KinaseProfiler kinase profiling
Type in all cases: biochemical
Settings in all cases: 10 μM, ATP near Km
NEK7 = molecular target: T1, NEK7 (Homo sapiens, UniProt Q8TDX7)
T1 construct: purchased Millipore, Inc. (KinaseProfiler service)
How it was run: (§1)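 10 μM cpd, duplicate, [ATP] ≈ Km per kinase. Output = POC, mean of n=2.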

PKCeta = molecular target: T2, PKCeta (Homo sapiens, UniProt P24723)
T2 construct: purchased Millipore, Inc. (KinaseProfiler service)
How it was run: as §1

Rsk1 = molecular target: T3, Rsk1 (Homo sapiens, UniProt Q15418)
T3 construct: purchased Millipore, Inc. (KinaseProfiler service)
How it was run: as §1

PKCbetaII = molecular target: T4, PKCbetaII (Homo sapiens, UniProt P05771)
T4 construct: purchased Millipore, Inc. (KinaseProfiler service)
How it was run: as §1

mTOR = molecular target: T5, mTOR (Homo sapiens, UniProt P42345)
T5 construct: purchased Millipore, Inc. (KinaseProfiler service)
How it was run: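 Each kinase reaction contained ATP approximating its own Km plus 10 μM test compound. Duplicates were run, and the mean percent-of-control value is listed.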

EGFR = molecular target: T6, EGFR (Homo sapiens, UniProt P00533)
T6 construct: purchased Millipore, Inc. (KinaseProfiler service)
How it was run: as §1

SGK1 = molecular target: T7, SGK1 (Homo sapiens, UniProt O00141)
T7 construct: purchased Millipore, Inc. (KinaseProfiler service)
How it was run: as §1

VRK2 = molecular target: T8, VRK2 (Homo sapiens, UniProt Q86Y07)
T8 construct: purchased Millipore, Inc. (KinaseProfiler service)
How it was run: as §1

CDK7/cyclinH/MAT1 = molecular target: T9, CDK7/cyclinH/MAT1 (Homo sapiens, UniProt P50613)
T9 construct: purchased Millipore, Inc. (KinaseProfiler service)
How it was run: as §1

Mer = molecular target: T10, Mer (Homo sapiens, UniProt Q12866)
T10 construct: purchased Millipore, Inc. (KinaseProfiler service)
How it was run: as §1

p38alpha = molecular target: T11, p38alpha (Homo sapiens, UniProt Q16539)
T11 construct: purchased Millipore, Inc. (KinaseProfiler service)
How it was run: as §1

PRK2 = molecular target: T12, PRK2 (Homo sapiens, UniProt Q16513)
T12 construct: purchased Millipore, Inc. (KinaseProfiler service)
How it was run: as §1

LIMK1 = molecular target: T13, LIMK1 (Homo sapiens, UniProt P53667)
T13 construct: purchased Millipore, Inc. (KinaseProfiler service)
How it was run: as §1

JNK2alpha2 = molecular target: T14, JNK2alpha2 (Homo sapiens, UniProt P45984)
T14 construct: purchased Millipore, Inc. (KinaseProfiler service)
How it was run: as §1

Rse = molecular target: T15, Rse (Homo sapiens, UniProt Q06418)
T15 construct: purchased Millipore, Inc. (KinaseProfiler service)
How it was run: as §1

p38gamma = molecular target: T16, p38gamma (Homo sapiens, UniProt P53778)
T16 construct: purchased Millipore, Inc. (KinaseProfiler service)
How it was run: as §1

GRK7 = molecular target: T17, GRK7 (Homo sapiens, UniProt Q8WTQ7)
T17 construct: purchased Millipore, Inc. (KinaseProfiler service)
How it was run: as §1

PKD1 = molecular target: T18, PKD1 (Homo sapiens, UniProt Q15139)
T18 construct: purchased Millipore, Inc. (KinaseProfiler service)
How it was run: as §1

NEK6 = molecular target: T19, NEK6 (Homo sapiens, UniProt Q9HC98)
T19 construct: purchased Millipore, Inc. (KinaseProfiler service)
How it was run: as §1

CHK2 = molecular target: T20, CHK2 (Homo sapiens, UniProt O96017)
T20 construct: purchased Millipore, Inc. (KinaseProfiler service)
How it was run: as §1

TrkA = molecular target: T21, TrkA (Homo sapiens, UniProt P04629)
T21 construct: purchased Millipore, Inc. (KinaseProfiler service)
How it was run: as §1

Ret = molecular target: T22, Ret (Homo sapiens, UniProt P07949)
T22 construct: purchased Millipore, Inc. (KinaseProfiler service)
How it was run: as §1

Axl = molecular target: T23, Axl (Homo sapiens, UniProt P30530)
T23 construct: purchased Millipore, Inc. (KinaseProfiler service)
How it was run: as §1

IKKbeta = molecular target: T24, IKKbeta (Homo sapiens, UniProt O14920)
T24 construct: purchased Millipore, Inc. (KinaseProfiler service)
How it was run: as §1

IRAK1 = molecular target: T25, IRAK1 (Homo sapiens, UniProt P51617)
T25 construct: purchased Millipore, Inc. (KinaseProfiler service)
How it was run: as §1

ULK2 = molecular target: T26, ULK2 (Homo sapiens, UniProt Q8IYT8)
T26 construct: purchased Millipore, Inc. (KinaseProfiler service)
How it was run: as §1

DMPK = molecular target: T27, DMPK (Homo sapiens, UniProt Q09013)
T27 construct: purchased Millipore, Inc. (KinaseProfiler service)
How it was run: as §1

MYLK = molecular target: T28, MYLK (Homo sapiens, UniProt Q15746)
T28 construct: purchased Millipore, Inc. (KinaseProfiler service)
How it was run: as §1

PTK5 = molecular target: T29, PTK5 (Homo sapiens, UniProt P42685)
T29 construct: purchased Millipore, Inc. (KinaseProfiler service)
How it was run: as §1

CDK6/cyclinD3 = molecular target: T30, CDK6/cyclinD3 (Homo sapiens, UniProt Q00534)
T30 construct: purchased Millipore, Inc. (KinaseProfiler service)
How it was run: as §1

IR = molecular target: T31, IR (Homo sapiens, UniProt P06213)
T31 construct: purchased Millipore, Inc. (KinaseProfiler service)
How it was run: as §1

CDK9/cyclinT1 = molecular target: T32, CDK9/cyclinT1 (Homo sapiens, UniProt P50750)
T32 construct: purchased Millipore, Inc. (KinaseProfiler service)
How it was run: as §1

MLK1 = molecular target: T33, MLK1 (Homo sapiens, UniProt P80192)
T33 construct: purchased Millipore, Inc. (KinaseProfiler service)
How it was run: as §1

BLK = molecular target: T34, BLK (Homo sapiens, UniProt P51451)
T34 construct: purchased Millipore, Inc. (KinaseProfiler service)
How it was run: as §1

MKNK2 = molecular target: T35, MKNK2 (Homo sapiens, UniProt Q9HBH9)
T35 construct: purchased Millipore, Inc. (KinaseProfiler service)
How it was run: as §1

SRPK1 = molecular target: T36, SRPK1 (Homo sapiens, UniProt Q96SB4)
T36 construct: purchased Millipore, Inc. (KinaseProfiler service)
How it was run: as §1

Lck = molecular target: T37, Lck (Homo sapiens, UniProt P06239)
T37 construct: purchased Millipore, Inc. (KinaseProfiler service)
How it was run: as §1

PKCbetaI = molecular target: T38, PKCbetaI (Homo sapiens, UniProt P05771)
T38 construct: purchased Millipore, Inc. (KinaseProfiler service)
How it was run: as §1

CAMK1 = molecular target: T39, CAMK1 (Homo sapiens, UniProt Q14012)
T39 construct: purchased Millipore, Inc. (KinaseProfiler service)
How it was run: as §1

Plk2 = molecular target: T40, Plk2 (Homo sapiens, UniProt Q9NYY3)
T40 construct: purchased Millipore, Inc. (KinaseProfiler service)
How it was run: as §1

EphA3 = molecular target: T41, EphA3 (Homo sapiens, UniProt P29320)
T41 construct: purchased Millipore, Inc. (KinaseProfiler service)
How it was run: as §1

T6 sequence (P00533 25-1210): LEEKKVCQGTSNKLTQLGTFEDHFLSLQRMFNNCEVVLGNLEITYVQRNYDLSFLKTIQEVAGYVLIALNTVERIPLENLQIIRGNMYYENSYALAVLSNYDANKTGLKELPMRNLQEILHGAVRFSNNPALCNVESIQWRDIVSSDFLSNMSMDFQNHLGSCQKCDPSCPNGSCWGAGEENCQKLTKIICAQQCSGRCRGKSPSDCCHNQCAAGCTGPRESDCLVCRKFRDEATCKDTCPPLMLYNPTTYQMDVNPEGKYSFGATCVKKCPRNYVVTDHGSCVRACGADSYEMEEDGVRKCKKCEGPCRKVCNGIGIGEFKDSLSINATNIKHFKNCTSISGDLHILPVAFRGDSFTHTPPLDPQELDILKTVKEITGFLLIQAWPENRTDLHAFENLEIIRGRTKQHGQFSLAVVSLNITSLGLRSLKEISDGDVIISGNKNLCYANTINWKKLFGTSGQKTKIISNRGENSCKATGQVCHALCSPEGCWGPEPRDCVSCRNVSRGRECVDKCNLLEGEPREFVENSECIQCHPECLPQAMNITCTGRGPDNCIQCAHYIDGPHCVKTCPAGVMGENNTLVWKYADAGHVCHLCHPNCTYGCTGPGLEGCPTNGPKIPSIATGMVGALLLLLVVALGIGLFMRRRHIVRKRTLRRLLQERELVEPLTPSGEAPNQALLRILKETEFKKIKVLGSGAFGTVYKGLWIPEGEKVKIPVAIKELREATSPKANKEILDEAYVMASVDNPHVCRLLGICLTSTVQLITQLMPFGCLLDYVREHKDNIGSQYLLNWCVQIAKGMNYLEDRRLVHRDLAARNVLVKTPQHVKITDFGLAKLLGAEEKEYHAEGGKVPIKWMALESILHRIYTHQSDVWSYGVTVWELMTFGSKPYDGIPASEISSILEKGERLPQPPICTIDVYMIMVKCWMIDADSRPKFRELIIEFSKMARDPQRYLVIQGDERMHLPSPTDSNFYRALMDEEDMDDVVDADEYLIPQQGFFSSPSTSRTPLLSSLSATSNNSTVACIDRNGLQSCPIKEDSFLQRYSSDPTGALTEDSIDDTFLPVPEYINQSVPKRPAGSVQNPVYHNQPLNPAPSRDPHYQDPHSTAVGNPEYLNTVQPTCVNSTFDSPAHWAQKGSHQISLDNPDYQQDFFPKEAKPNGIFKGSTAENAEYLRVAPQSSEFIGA
T18 sequence (Q15139 whole entry): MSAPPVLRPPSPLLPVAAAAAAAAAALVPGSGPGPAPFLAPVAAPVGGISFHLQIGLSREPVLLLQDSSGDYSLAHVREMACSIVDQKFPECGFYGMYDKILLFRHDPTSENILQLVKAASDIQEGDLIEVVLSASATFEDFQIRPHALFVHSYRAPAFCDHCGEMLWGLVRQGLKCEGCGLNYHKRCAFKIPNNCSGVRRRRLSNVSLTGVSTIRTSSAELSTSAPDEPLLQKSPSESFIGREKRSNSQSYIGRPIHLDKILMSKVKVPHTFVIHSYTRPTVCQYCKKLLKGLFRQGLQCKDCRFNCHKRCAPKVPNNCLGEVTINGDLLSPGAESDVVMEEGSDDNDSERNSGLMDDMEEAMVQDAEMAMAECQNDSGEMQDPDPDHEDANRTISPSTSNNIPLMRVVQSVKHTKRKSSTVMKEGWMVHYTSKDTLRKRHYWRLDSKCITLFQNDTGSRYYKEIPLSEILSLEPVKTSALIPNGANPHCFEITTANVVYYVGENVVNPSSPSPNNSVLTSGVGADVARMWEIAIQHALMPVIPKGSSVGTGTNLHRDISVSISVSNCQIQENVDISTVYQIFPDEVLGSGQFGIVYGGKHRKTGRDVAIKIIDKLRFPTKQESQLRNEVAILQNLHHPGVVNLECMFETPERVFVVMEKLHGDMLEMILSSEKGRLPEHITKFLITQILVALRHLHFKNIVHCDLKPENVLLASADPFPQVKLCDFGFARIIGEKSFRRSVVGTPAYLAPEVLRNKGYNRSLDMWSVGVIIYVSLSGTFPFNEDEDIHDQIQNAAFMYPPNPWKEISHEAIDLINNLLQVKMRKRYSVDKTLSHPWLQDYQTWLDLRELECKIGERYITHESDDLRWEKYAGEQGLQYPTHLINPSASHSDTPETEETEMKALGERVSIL
T28 sequence (Q15746 whole entry): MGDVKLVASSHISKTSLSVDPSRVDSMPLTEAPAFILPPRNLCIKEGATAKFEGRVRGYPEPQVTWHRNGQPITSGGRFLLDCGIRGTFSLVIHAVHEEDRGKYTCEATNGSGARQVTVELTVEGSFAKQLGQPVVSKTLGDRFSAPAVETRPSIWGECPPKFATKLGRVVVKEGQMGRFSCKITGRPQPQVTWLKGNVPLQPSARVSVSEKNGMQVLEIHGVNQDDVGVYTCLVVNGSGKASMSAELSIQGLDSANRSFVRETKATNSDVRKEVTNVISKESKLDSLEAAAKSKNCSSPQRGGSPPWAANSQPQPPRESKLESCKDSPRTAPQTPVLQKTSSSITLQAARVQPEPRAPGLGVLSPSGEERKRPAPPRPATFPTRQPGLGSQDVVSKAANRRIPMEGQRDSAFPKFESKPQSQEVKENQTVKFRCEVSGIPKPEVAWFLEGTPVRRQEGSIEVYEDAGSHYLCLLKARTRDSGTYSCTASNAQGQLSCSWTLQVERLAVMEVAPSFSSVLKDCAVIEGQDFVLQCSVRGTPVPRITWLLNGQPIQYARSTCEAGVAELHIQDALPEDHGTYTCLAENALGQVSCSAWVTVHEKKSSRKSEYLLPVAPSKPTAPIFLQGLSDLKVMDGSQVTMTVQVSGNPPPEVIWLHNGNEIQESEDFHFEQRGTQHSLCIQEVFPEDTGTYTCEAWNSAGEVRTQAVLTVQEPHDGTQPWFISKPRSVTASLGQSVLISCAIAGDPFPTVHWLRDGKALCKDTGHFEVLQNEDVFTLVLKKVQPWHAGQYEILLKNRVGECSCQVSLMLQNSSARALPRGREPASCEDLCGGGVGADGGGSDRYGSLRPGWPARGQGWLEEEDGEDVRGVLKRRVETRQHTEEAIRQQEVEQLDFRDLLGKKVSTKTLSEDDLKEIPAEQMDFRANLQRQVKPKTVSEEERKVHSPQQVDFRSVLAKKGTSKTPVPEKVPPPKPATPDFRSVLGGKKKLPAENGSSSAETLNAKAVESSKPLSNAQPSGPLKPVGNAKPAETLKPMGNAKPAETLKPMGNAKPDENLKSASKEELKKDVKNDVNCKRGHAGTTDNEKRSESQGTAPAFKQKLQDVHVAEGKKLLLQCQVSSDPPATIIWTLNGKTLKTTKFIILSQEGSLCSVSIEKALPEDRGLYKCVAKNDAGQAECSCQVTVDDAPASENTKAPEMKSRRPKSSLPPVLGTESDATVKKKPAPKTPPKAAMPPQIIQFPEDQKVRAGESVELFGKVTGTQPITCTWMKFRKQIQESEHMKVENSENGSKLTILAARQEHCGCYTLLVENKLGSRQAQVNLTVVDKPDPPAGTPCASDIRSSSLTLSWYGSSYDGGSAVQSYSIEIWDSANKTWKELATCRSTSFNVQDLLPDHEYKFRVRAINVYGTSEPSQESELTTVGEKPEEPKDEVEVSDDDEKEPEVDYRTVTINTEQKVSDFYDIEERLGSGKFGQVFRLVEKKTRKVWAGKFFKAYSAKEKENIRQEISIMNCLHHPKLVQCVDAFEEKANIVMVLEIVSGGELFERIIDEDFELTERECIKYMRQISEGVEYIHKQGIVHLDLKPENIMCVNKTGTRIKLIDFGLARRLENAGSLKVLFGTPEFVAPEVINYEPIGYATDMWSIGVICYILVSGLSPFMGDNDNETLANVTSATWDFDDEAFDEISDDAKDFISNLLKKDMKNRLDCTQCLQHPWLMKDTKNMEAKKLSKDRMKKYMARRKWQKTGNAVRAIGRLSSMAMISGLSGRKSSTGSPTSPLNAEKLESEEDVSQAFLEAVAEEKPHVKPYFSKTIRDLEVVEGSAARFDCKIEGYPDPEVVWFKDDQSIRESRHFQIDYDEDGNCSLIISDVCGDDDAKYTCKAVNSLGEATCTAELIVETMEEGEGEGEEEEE
T16 sequence (P53778 whole entry): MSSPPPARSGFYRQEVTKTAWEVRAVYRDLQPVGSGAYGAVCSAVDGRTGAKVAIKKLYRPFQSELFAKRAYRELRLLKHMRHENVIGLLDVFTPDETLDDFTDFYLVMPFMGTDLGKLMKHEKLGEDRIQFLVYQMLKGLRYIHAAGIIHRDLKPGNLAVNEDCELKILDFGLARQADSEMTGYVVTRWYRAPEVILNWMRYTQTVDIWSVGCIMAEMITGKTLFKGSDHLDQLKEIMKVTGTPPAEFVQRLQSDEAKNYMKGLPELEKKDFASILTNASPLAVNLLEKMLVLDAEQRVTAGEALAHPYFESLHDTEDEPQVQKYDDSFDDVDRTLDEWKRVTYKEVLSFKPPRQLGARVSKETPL
T8 sequence (Q86Y07 whole entry): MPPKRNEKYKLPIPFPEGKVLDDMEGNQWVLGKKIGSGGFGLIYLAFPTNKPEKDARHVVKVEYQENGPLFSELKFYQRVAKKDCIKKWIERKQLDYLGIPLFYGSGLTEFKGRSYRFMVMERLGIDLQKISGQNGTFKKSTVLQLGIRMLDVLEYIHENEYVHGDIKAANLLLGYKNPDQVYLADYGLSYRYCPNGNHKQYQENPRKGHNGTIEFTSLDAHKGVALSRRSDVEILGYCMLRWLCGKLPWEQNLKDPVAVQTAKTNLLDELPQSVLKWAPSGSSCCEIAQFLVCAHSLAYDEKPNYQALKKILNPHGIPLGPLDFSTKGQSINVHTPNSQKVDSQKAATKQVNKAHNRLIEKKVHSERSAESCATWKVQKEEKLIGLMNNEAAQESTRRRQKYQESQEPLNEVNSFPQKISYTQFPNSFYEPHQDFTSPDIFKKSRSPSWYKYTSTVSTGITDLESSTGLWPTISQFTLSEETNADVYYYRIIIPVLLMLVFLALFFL

Avg POC (NEK7): 104 POC
Avg POC (PKCeta): 100 POC
Avg POC (Rsk1): 102 POC
Avg POC (PKCbetaII): 99.5 POC
Avg POC (mTOR): 97.5 POC
Avg POC (EGFR): 95.5 POC
Avg POC (SGK1): 105 POC
Avg POC (VRK2): 96 POC
Avg POC (CDK7/cyclinH/MAT1): 99 POC
Avg POC (Mer): 147.5 POC
Avg POC (p38alpha): 107.5 POC
Avg POC (PRK2): 116 POC
Avg POC (LIMK1): 98 POC
Avg POC (JNK2alpha2): 98.5 POC
Avg POC (Rse): 102.5 POC
Avg POC (p38gamma): 114.5 POC
Avg POC (GRK7): 101 POC
Avg POC (PKD1): 94.5 POC
Avg POC (NEK6): 96 POC
Avg POC (CHK2): 102.5 POC
Avg POC (TrkA): 2.5 POC
Avg POC (Ret): 111.5 POC
Avg POC (Axl): 115.5 POC
Avg POC (IKKbeta): 104.5 POC
Avg POC (IRAK1): 103 POC
Avg POC (ULK2): 106 POC
Avg POC (DMPK): 98.5 POC
Avg POC (MYLK): 106.5 POC
Avg POC (PTK5): 105 POC
Avg POC (CDK6/cyclinD3): 99.5 POC
Avg POC (IR): 84.5 POC
Avg POC (CDK9/cyclinT1): 112 POC
Avg POC (MLK1): 109.5 POC
Avg POC (BLK): 82.5 POC
Avg POC (MKNK2): 111 POC
Avg POC (SRPK1): 96 POC
Avg POC (Lck): 94 POC
Avg POC (PKCbetaI): 102.5 POC
Avg POC (CAMK1): 104.5 POC
Avg POC (Plk2): 101 POC
Avg POC (EphA3): 95.5 POC
Structure (SMILES): COCCN1C[C@@H](NC(=O)Nc2c(C)c(-c3cnc(C)nc3)nn2-c2ccccc2)[C@H](c2cccc(F)c2)C1 [Compound 1, 1-((3S,4R)-4-(3-fluorophenyl)-1-(2-methoxyethyl)pyrrolidin-3-yl)-3-(4-methyl-3-(2-methylpyrimidin-5-yl)-1-phenyl-1H-pyrazol-5-yl)urea]
